Target: Substance-P receptor (Homo sapiens, UniProt P25103)
Experiment: Tested for the inhibitory potency against Neurokinin 1 NK1 receptor

Substance-P receptor, sequence (P25103 whole entry): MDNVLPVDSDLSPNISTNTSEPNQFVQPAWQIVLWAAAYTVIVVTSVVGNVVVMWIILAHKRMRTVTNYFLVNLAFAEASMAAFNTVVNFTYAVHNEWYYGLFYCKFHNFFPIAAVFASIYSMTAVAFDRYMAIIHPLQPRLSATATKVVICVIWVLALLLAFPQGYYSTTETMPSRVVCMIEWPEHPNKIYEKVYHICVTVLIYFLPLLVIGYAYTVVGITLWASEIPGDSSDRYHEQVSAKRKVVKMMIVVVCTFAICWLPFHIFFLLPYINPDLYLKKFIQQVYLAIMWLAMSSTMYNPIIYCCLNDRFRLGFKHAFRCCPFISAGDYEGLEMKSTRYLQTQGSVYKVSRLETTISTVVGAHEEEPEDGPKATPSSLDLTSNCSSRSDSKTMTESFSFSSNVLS

IC50 | SMILES
1000 nM | Cc1cc(C)cc(C(=O)N2C3C=C(c4ccccc4)C2CC(NCc2ccnc4ccccc24)C3)c1 (racemic)
44 nM | Cc1cc(C)cc(C(=O)N2C3CC(NCc4ccnc5ccccc45)CC2C(c2ccccc2)C3)c1 (racemic; form 1)
640 nM | Cc1cc(C)cc(C(=O)N2C3CC(NCc4ccnc5ccccc45)CC2C(c2ccccc2)C3)c1 (racemic; form 2)
